What was measured:
OXA-48 = OXA-48 (UniProt Q6XEC0); experiment: β-lactamase enzyme inhibition assay, Class D oxacillinase; assay type: biochemical; details: read-out: OXA-48
[1] = test system: K. pneumoniae producing the Class D carbapenemase OXA-48; experiment: Broth microdilution MIC assay with meropenem, K. pneumoniae OXA-48; assay type: cell-based; details: Fixed Mero (meropenem) 4 μg/mL; K. p. 11978 OXA-48
Summary of the method: (§1)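 CAMHB; cpd 2-fold serial dilution, 16–0.125 μg/mL final; β-lactam static 4 μg/ml; CLSI inoculation; 16–20 h, 37° C; MIC read by eye.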

VIM-2 = biological target: T1, VIM-2 (Escherichia coli, UniProt Q5U7L7); experiment: β-lactamase enzyme inhibition assay, VIM-2 (nitrocefin substrate); assay type: biochemical; details: Class B; nitrocefin substrate, 486 nm; read-out: VIM-2
T1 construct: made in house; host or cells: E. coli BL21(DE3)
Summary of the method: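 Enzyme + inhibitor, 37 °C, 15 min; nitrocefin 100 μM final; A486 read for 10 min. % inhibition vs no-inhibitor wells per concentration; IC50 = concentration halving initial hydrolysis rate.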

KPC-2 = biological target: T2, KPC-2 (Klebsiella pneumoniae, UniProt Q9F663); experiment: β-lactamase enzyme inhibition assay, KPC-2 (imipenem substrate); assay type: biochemical; details: Class A; imipenem substrate, 300 nm; read-out: KPC-2
T2 construct: made in house; host or cells: E. coli BL21(DE3)
Summary of the method: (§2)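 IC50 is the inhibitor level cutting initial substrate hydrolysis rate by 50% relative to no-inhibitor controls, after 15 min enzyme–inhibitor preincubation at 37 °C. KPC-2 read with imipenem at 300 nm, SHV-5 with cefotaxime at 260 nm; enzymes were untagged, E. coli-expressed, chromatographically purified.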

[2] = test system: E. cloacae expressing the Class C P99; experiment: Broth microdilution MIC assay with ceftazidime, E. cloacae P99; assay type: cell-based; details: Fixed CAZ (ceftazidime) 4 μg/mL; E. cl. 144200 p99 AmpC
Summary of the method: as §1

[3] = test system: P. aeruginosa expressing the Class B carbapenemase VIM-2; experiment: Broth microdilution MIC assay with meropenem, P. aeruginosa VIM-2; assay type: cell-based; details: Fixed Mero (meropenem) 4 μg/mL; P. aerug. 2775 VIM-2
Summary of the method: as §1

[4] = test system: K. pneumoniae expressing the class A carbapenemase KPC-2 and the class B carbapenemase VIM-4; experiment: Broth microdilution MIC assay with meropenem, K. pneumoniae KPC-2 and VIM-4; assay type: cell-based; details: Fixed Mero (meropenem) 4 μg/mL; K. p. A-1797 KPC-2 VIM-4
Summary of the method: as §1

SHV-5 = biological target: T3, SHV-5 (Klebsiella pneumoniae, UniProt P0A3M1); experiment: β-lactamase enzyme inhibition assay, SHV-5 (cefotaxime substrate); assay type: biochemical
T3 construct: made in house; host or cells: E. coli BL21(DE3)
Summary of the method: as §2

AmpC = biological target: T4, AmpC (Enterobacter cloacae, UniProt P05364); experiment: β-lactamase enzyme inhibition assay, p99 AmpC (nitrocefin substrate); assay type: biochemical
T4 construct: made in house; host or cells: E. coli BL21(DE3)
Summary of the method: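 IC50 is the inhibitor level cutting initial substrate hydrolysis rate by 50% relative to no-inhibitor controls, after 15 min enzyme–inhibitor preincubation at 37 °C. enzymes were untagged, E. coli-expressed, chromatographically purified.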

[5] = test system: E. coli expressing the Class A Extended Spectrum Beta-Lactamase (ESBL) CTX-M-15; experiment: Broth microdilution MIC assay with ceftazidime, E. coli CTX-M-15; assay type: cell-based; details: Fixed CAZ (ceftazidime) 4 μg/mL; E. coli ESBL4 CTX-M-15
Summary of the method: as §1

[6] = test system: K. pneumoniae expressing the Class A carbapenemase KPC-2; experiment: Broth microdilution MIC assay with meropenem, K. pneumoniae KPC-2; assay type: cell-based; details: Fixed Mero (meropenem) 4 μg/mL; K. p. 156319 KPC-3
Summary of the method: as §1

T4 sequence (P05364 21-381): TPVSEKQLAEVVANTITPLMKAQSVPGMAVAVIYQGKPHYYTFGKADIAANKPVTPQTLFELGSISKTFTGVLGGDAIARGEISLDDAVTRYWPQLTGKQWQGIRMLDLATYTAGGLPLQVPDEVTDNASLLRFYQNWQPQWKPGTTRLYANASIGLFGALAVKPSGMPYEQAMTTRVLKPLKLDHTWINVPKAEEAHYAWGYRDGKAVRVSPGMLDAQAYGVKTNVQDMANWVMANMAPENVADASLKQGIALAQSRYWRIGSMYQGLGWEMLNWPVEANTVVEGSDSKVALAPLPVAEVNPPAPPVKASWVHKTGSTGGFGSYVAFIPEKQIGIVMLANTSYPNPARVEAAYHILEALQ
T2 sequence (Q9F663 25-293, looked up): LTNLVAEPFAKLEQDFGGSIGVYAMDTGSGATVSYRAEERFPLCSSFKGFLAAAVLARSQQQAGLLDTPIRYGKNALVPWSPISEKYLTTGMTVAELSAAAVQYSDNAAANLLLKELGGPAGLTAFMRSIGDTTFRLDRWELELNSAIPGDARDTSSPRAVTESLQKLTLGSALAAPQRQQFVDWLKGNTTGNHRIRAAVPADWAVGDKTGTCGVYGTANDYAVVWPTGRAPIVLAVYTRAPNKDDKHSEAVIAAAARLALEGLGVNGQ
T3 sequence (P0A3M1 22-286): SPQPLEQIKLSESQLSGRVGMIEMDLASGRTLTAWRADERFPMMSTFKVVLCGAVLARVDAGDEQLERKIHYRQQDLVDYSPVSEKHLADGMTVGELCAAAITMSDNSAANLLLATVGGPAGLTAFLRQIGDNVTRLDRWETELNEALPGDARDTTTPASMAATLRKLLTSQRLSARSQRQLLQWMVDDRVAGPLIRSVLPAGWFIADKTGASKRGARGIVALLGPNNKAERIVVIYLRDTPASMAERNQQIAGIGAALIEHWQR

Structure (SMILES) | IC50 (OXA-48) [µM] | MIC (μg/mL) of Exemplary Compounds in presence of fixed β-lactams: K. p. 11978 OXA-48 [1] | IC50 (VIM-2) [µM] | IC50 (KPC-2) [µM] | MIC (μg/mL) of Exemplary Compounds in presence of fixed β-lactams: E. cl. 144200 p99 AmpC [2] | MIC (μg/mL) of Exemplary Compounds in presence of fixed β-lactams: P. aerug. 2775 VIM-2 [3] | MIC (μg/mL) of Exemplary Compounds in presence of fixed β-lactams: K. p. A-1797 KPC-2 VIM-4 [4] | IC50 (SHV-5) [µM] | IC50 (AmpC) [µM] | MIC (μg/mL) of Exemplary Compounds in presence of fixed β-lactams: E. coli ESBL4 CTX-M-15 [5] | MIC (μg/mL) of Exemplary Compounds in presence of fixed β-lactams: K. p. 156319 KPC-3 [6]
NCc1nnn(CC(=O)N[C@H]2Cc3cccc(C(=O)O)c3OB2O)c1I [Example 105, (R)-3-(2-(4-(aminomethyl)-5-iodo-1H-1,2,3-triazol-1-yl)acetamido)-2-hydroxy-3,4-dihydro-2H-benzo[e][1,2]oxaborinine-8-carboxylic acid] | < 0.1 | C (C represents an MIC of <1 μg/mL) | < 0.1 | < 0.1 | C (C represents an MIC of <1 μg/mL) | C (C represents an MIC of <1 μg/mL) | C (C represents an MIC of <1 μg/mL) | 0.1 to 1 | < 0.1 | C (C represents an MIC of <1 μg/mL) | C (C represents an MIC of <1 μg/mL)
Cc1c(CN)nnn1CC(=O)N[C@H]1Cc2cccc(C(=O)O)c2OB1O [Example 106, (R)-3-(2-(4-(aminomethyl)-5-methyl-1H-1,2,3-triazol-1-yl)acetamido)-2-hydroxy-3,4-dihydro-2H-benzo[e][1,2]oxaborinine-8-carboxylic acid] | < 0.1 | B (B represents an MIC between 1 and 16 μg/mL inclusive) | < 0.1 | < 0.1 | C (C represents an MIC of <1 μg/mL) | C (C represents an MIC of <1 μg/mL) | C (C represents an MIC of <1 μg/mL) | 0.1 to 1 | < 0.1 | C (C represents an MIC of <1 μg/mL) | C (C represents an MIC of <1 μg/mL)
NCc1nnn(CC(=O)N[C@H]2Cc3cccc(C(=O)O)c3OB2O)c1Cl [Example 107, (R)-3-(2-(4-(aminomethyl)-5-chloro-1H-1,2,3-triazol-1-yl)acetamido)-2-hydroxy-3,4-dihydro-2H-benzo[e][1,2]oxaborinine-8-carboxylic acid] | < 0.1 | B (B represents an MIC between 1 and 16 μg/mL inclusive) | < 0.1 | < 0.1 | B (B represents an MIC between 1 and 16 μg/mL inclusive) | C (C represents an MIC of <1 μg/mL) | C (C represents an MIC of <1 μg/mL) | 0.1 to 1 | < 0.1 | C (C represents an MIC of <1 μg/mL) | C (C represents an MIC of <1 μg/mL)
NCc1nnn(CC(=O)N[C@H]2Cc3cccc(C(=O)O)c3OB2O)c1-c1ccsc1 [Example 108, (R)-3-(2-(4-(aminomethyl)-5-(thiophen-3-yl)-1H-1,2,3-triazol-1-yl)acetamido)-2-hydroxy-3,4-dihydro-2H-benzo[e][1,2]oxaborinine-8-carboxylic acid] | < 0.1 | B (B represents an MIC between 1 and 16 μg/mL inclusive) | < 0.1 | < 0.1 | B (B represents an MIC between 1 and 16 μg/mL inclusive) | C (C represents an MIC of <1 μg/mL) | C (C represents an MIC of <1 μg/mL) | 0.1 to 1 | < 0.1 | C (C represents an MIC of <1 μg/mL) | B (B represents an MIC between 1 and 16 μg/mL inclusive)
